Laboratory results published in patent US20080140036A1, “Antimicrobial Composition” (priority 2004, published 2008).

Tests used:
[1] = system: S. epidermidis NCTC 7944; test: ZOI of triclosan vapours (vapour phase); assay type: cell-based
[2] = system: S. aureus NCBC 11882; test: ZOI of triclosan vapours (vapour phase); assay type: cell-based
[3] = system: MSSA (48); test: ZOI of triclosan vapours (vapour phase); assay type: cell-based, S. aureus
[4] = system: EMRSA j95 922 phage group 3; test: ZOI of triclosan vapours (vapour phase)
[5] = system: MRSA 20; test: ZOI of triclosan vapours (vapour phase)
[6] = system: MRSA 11; test: ZOI of triclosan vapours (vapour phase)
[7] = system: MRSA 17; test: ZOI of triclosan vapours (vapour phase)
[8] = system: EMRSA m97 271 047 phage group 8; test: ZOI of triclosan vapours (vapour phase)
[9] = system: MRSA 15; test: ZOI of triclosan vapours (vapour phase)
[10] = system: Strain T4 MSSA; test: ZOI of triclosan vapours (vapour phase); assay type: cell-based, S. aureus
[11] = system: EMRSA m97 271 031 phage group 1; test: ZOI of triclosan vapours (vapour phase)
[12] = system: Oxford S. aureus NCTC 6571; test: ZOI of triclosan vapours (vapour phase); assay type: cell-based
[13] = system: EMRSA m97 271 042 phage group 12; test: ZOI of triclosan vapours (vapour phase)
[14] = system: S. haemolyticus NCTC 11042; test: ZOI of triclosan vapours (vapour phase); assay type: cell-based
[15] = system: EMRSA m97 271 036 phage group 11; test: ZOI of triclosan vapours (vapour phase)
[16] = system: MRSA 26; test: ZOI of triclosan vapours (vapour phase)
[17] = system: EMRSA m972 710 40 phage group 9; test: ZOI of triclosan vapours (vapour phase)
[18] = system: Strain T1 MSSA; test: ZOI of triclosan vapours (vapour phase); assay type: cell-based, S. aureus
[19] = system: MSSA (46); test: ZOI of triclosan vapours (vapour phase); assay type: cell-based, S. aureus
[20] = system: EMRSA m97 271 038 phage group 2; test: ZOI of triclosan vapours (vapour phase)
[21] = system: MRSA 16; test: ZOI of triclosan vapours (vapour phase)
[22] = system: EMRSA g96 139 515 phage group 15; test: ZOI of triclosan vapours (vapour phase)
[23] = system: EMRSA m97 271 032 phage group 10; test: MIC of triclosan (direct contact)
[24] = system: Strain T4 MSSA; test: MIC of triclosan (direct contact); assay type: cell-based, S. aureus
[25] = system: EMRSA m97271052 phage group 4; test: ZOI of triclosan vapours (vapour phase)
[26] = system: S. saprophyticus NCIMB 8711; test: ZOI of triclosan vapours (vapour phase); assay type: cell-based
[27] = system: MRSA 12; test: ZOI of triclosan vapours (vapour phase)
[28] = system: MSSA (47); test: ZOI of triclosan vapours (vapour phase); assay type: cell-based, S. aureus
[29] = system: EMRSA m97 271 088 phage group 6; test: ZOI of triclosan vapours (vapour phase)

Oc1cc(Cl)ccc1Oc1ccc(Cl)cc1Cl [triclosan]
ZOI Average ([1]; average): 50.5 mm | ZOI 1 ([1]; replicate 1): 50 mm | ZOI 2 ([1]; replicate 2): 51 mm | ZOI Average ([2]; average): 48 mm | ZOI 1 ([2]; replicate 1): 47 mm | ZOI 2 ([2]; replicate 2): 49 mm | ZOI Average ([3]; average): 48.5 mm | ZOI 1 ([3]; replicate 1): 49 mm | ZOI 2 ([3]; replicate 2): 48 mm | ZOI Average ([4]; average): 54 mm | ZOI 1 ([4]; replicate 1): 55 mm | ZOI 2 ([4]; replicate 2): 53 mm | ZOI Average ([5]; average): 55 mm | ZOI 1 ([5]; replicate 1): 55 mm | ZOI 2 ([5]; replicate 2): 55 mm | ZOI Average ([6]; average): 43 mm | ZOI 1 ([6]; replicate 1): 43 mm | ZOI 2 ([6]; replicate 2): 43 mm | ZOI Average ([7]; average): 32 mm | ZOI 1 ([7]; replicate 1): 31 mm | ZOI 2 ([7]; replicate 2): 33 mm | ZOI Average ([8]; average): 52 mm | ZOI 1 ([8]; replicate 1): 52 mm | ZOI 2 ([8]; replicate 2): 52 mm | ZOI Average ([9]; average): 50 mm | ZOI 1 ([9]; replicate 1): 50 mm | ZOI 2 ([9]; replicate 2): 50 mm | ZOI Average ([10]; average): 51 mm | ZOI 1 ([10]; replicate 1): 50 mm | ZOI 2 ([10]; replicate 2): 52 mm | ZOI Average ([11]; average): 41 mm | ZOI 1 ([11]; replicate 1): 42 mm | ZOI 2 ([11]; replicate 2): 40 mm | ZOI Average ([12]; average): 51 mm | ZOI 1 ([12]; replicate 1): 50 mm | ZOI 2 ([12]; replicate 2): 52 mm | ZOI Average ([13]; average): 45 mm | ZOI 1 ([13]; replicate 1): 45 mm | ZOI 2 ([13]; replicate 2): 45 mm | ZOI Average ([14]; average): 46 mm | ZOI 1 ([14]; replicate 1): 48 mm | ZOI 2 ([14]; replicate 2): 44 mm | ZOI Average ([15]; average): 52 mm | ZOI 1 ([15]; replicate 1): 52 mm | ZOI 2 ([15]; replicate 2): 52 mm | ZOI Average ([16]; average): 40 mm | ZOI 1 ([16]; replicate 1): 40 mm | ZOI 2 ([16]; replicate 2): 40 mm | ZOI Average ([17]; average): 55 mm | ZOI 1 ([17]; replicate 1): 55 mm | ZOI 2 ([17]; replicate 2): 55 mm | ZOI Average ([18]; average): 45.5 mm | ZOI 1 ([18]; replicate 1): 46 mm | ZOI 2 ([18]; replicate 2): 45 mm | ZOI Average ([19]; average): 45 mm | ZOI 1 ([19]; replicate 1): 45 mm | ZOI 2 ([19]; replicate 2): 45 mm | ZOI Average ([20]; average): 57 mm | ZOI 1 ([20]; replicate 1): 57 mm | ZOI 2 ([20]; replicate 2): 57 mm | ZOI Average ([21]; average): 55.5 mm | ZOI 1 ([21]; replicate 1): 55 mm | ZOI 2 ([21]; replicate 2): 56 mm | ZOI Average ([22]; average): 47 mm | ZOI 1 ([22]; replicate 1): 47 mm | ZOI 2 ([22]; replicate 2): 47 mm | MIC [23]: 0.5 Mg ml^−1− | MIC [24]: 0.25 Mg ml^−1− | ZOI Average ([25]; average): 50 mm | ZOI 1 ([25]; replicate 1): 50 mm | ZOI 2 ([25]; replicate 2): 50 mm | ZOI Average ([26]; average): 37.5 mm | ZOI 1 ([26]; replicate 1): 33 mm | ZOI 2 ([26]; replicate 2): 42 mm | ZOI Average ([27]; average): 44.5 mm | ZOI 1 ([27]; replicate 1): 45 mm | ZOI 2 ([27]; replicate 2): 44 mm | ZOI Average ([28]; average): 51.5 mm | ZOI 1 ([28]; replicate 1): 52 mm | ZOI 2 ([28]; replicate 2): 51 mm | ZOI Average ([29]; average): 52 mm | ZOI 1 ([29]; replicate 1): 52 mm | ZOI 2 ([29]; replicate 2): 52 mm
